Measured values taken from patent US20090012089A1, “Oxazolidinone Compounds and Their Use as Metabotropic Glutamate Receptor Potentiators” (ASTRAZENECA AB, priority 2005, published 2009).

molecular target: T1, human mGluR2 (Homo sapiens, UniProt Q14416); test: [35S]-GTPγS binding assay of mGluR2 receptor activation (allosteric activator activity) with CHO cell membranes; type: biochemical; details: membranes from CHO cells stably expressing human mGluR2; in presence of 1 μM glutamate
T1 construct: expressed in transfected cells; host or cells: CHO cells, stably transfected; membrane preparation
Method: A [^35S]-GTPγS binding assay was used to functionally assay mGluR2 receptor activation. The allosteric activator activity of compounds at the human mGluR2 receptor were measured using a [^35S]-GTPγS binding assay with membranes prepared from CHO cells which stably express the human mGluR2. The assay is based upon the principle that agonists bind to G-protein coupled receptors to stimulate GDP-GTP exchange at the G-protein. Since [^35S]-GTPγS is a non-hydrolyzable GTP analog, it can be used to provide an index of GDP-GTP exchange and, thus, receptor activation. The GTPγS binding assay therefore provides a quantitative measure of receptor activation.
Membranes were prepared from CHO cells stably transfected with human mGluR2. Membranes (30 μg protein) were incubated with test compound (3 nM to 300 μM) for 15 minutes at room temperature prior to the addition of 1 μM glutamate, and incubated for 30 min at 30° C. in 500 μl assay buffer (20 mM HEPES, 100 mM NaCl, 10 mM MgCl2), containing 30 μM GDP and 0.1 nM [^35S]-GTPγS (1250 Ci/mmol). Reactions were carried out in triplicate in 2 ml polypropylene 96-well plates. Reactions were terminated by vacuum filtration using a Packard 96-well harvester and Unifilter-96, GF/B filter microplates. The filter plates were washed 4×1.5 ml with ice-cold wash buffer (10 mM sodium phosphate buffer, pH 7.4). The filter plates were dried and 35 μl of scintillation fluid (Microscint 20) was added to each well. The amount of radioactivity bound was determined by counting plates on the Packard TopCount. Data was analyzed using GraphPad Prism, and EC50 and Emax values (relative to the maximum glutamate effect) were calculated using non-linear regression.

T1 sequence (Q14416 19-872): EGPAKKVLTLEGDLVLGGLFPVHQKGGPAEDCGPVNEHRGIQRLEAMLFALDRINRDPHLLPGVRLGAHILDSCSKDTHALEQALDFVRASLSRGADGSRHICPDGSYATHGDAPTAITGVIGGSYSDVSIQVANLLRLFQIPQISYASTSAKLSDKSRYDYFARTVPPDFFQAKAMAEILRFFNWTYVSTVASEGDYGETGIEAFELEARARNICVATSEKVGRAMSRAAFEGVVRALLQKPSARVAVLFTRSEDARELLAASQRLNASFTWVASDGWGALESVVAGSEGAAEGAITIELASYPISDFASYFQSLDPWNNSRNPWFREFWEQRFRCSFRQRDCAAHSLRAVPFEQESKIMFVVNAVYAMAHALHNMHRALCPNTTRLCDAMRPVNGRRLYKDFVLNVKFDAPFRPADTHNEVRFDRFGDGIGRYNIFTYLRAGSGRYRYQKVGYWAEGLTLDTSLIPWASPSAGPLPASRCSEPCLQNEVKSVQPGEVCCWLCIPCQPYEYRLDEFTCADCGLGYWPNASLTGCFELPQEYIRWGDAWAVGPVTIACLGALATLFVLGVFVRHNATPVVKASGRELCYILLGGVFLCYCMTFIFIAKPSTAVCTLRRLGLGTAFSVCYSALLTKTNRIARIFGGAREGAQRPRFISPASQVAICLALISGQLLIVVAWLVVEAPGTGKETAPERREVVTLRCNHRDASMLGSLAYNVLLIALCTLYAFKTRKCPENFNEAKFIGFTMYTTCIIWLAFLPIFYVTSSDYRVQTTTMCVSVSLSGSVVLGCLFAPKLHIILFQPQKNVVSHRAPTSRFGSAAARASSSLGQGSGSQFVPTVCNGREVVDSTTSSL

SMILES	EC50
O=C1O[C@H](c2ccccc2)CN1Cc1ccc(OC(F)(F)F)cc1 [Example 3.1, 5-(R)-Phenyl-3-(4-trifluoromethoxy-benzyl)-oxazolidin-2-one]	1960 nM
O=C1OC(c2ccc(F)cc2)CN1Cc1ccc(Oc2ccccc2)cc1 (centres unmarked) [Example 13.5, 5-(4-Fluoro-phenyl)-3-(4-phenoxy-benzyl)-oxazolidin-2-one]	390 nM
COc1cncc(-c2ccc(C3CN(Cc4ccc(OC(F)(F)F)cc4)C(=O)O3)cc2)c1 (centres unmarked) [Example 17.2, 5-[4-(5-Methoxy-pyridin-3-yl)-phenyl]-3-(4-trifluoromethoxy-benzyl)-oxa-zolidin-2-one]	910 nM

Next, values leading:

EC50	SMILES
120 nM	O=C(NC1CCN(Cc2ccccc2)C1)c1ccc(-c2ccc(CN3C[C@@H](c4ccccc4)OC3=O)cc2)cc1 (stereo in doubt) [Example 10.29, 4′-(2-Oxo-5-(R)-phenyl-oxazolidin-3-ylmethyl)-biphenyl-4-carboxylicacid (1-benzyl-pyrrolidin-3-(S)-yl)-amide]
3100 nM	CN(C)CCNC(=O)c1cccc(-c2ccc(C3CN(Cc4ccc(Cl)cc4)C(=O)O3)cc2)c1 (centres unmarked) [Example 17.3, 4′-[3-(4-Chloro-benzyl)-2-oxo-oxa-zolidin-5-yl]-biphenyl-3-carboxylic acid(2-dimethylamino-ethyl)-amide]
